Test results reported in US20160130592A1, “Soybean Transformation Using HPPD Inhibitors as Selection Agents” (Bayer CropScience AG, priority 2010, published 2016).

What was measured:
untransformed cells = test: Selection with DKN as selectable agent in Shoot Induction medium, cotyledonary node method; format: cell-based, soybean; settings: DKN 2 ppm in Shoot Induction medium
Method: The cotyledonary node method used for transforming soybean has been described by Zhang et al., 1999, Clemente et al. 2000, Xing et al. 2000.
After washing, the explants are placed (5 per plate) on the Shoot Initiation Medium, inclined at 45°, with the cotyledonary node area imbedded in the medium and upwards. The Shoot Initiation step lasts 1 month (24° C. 16/8 photoperiod) with a transfer after 15 days in which the hypocotyl is eliminated to keep only the differentiating area and the cotyledon.
1×B5 major salts, 1×B5 minor salts, 28 mg/L Ferrous, 38 mg/L NaEDTA, 30 g/L Sucrose, 0.59 g/L MES, and 7 g/L Noble agar (pH 5.7). Filter sterilized 1×B5 vitamins, BAP (1.11 mg/L), Timentin (50 mg/L), Cefotaxime (200 mg/L), Vancomycin (50 mg/L) and the selection agent are added to this medium after autoclaving.
Transgenic events (cv Thorne) were generated for construct carrying hppd gene alone (e.i. pFCO117) or in combination with pdh gene (e.i. pFCO48), using DKN as selection agent, as described in example 1. Selection agent DKN (diketonitrile) was added in SI (Shoot Induction medium) at a final concentration of 2 ppm and for about 4 week. When explants were transferred to SE (Shoot Elongation medium), selection was removed. […] Visual selectable marker dramatically decreases selection time, as untransformed material can be identified and eliminated in as little as 4 weeks after transformation.

untransformed tissue = test: Visual selection with IFT as selectable agent; format: cell-based, soybean; settings: FIG. 1; transformed material becomes green
From the text: FIG. 1: Visual selection with IFT as selectable agent.

[1] = about 4 weeks, cv Thorne, in vitro

SMILES	effect on chlorophyll synthesis (untransformed cells; [1])	lethality for untransformed cells (untransformed cells; [1])	phenotype of untransformed tissue (untransformed cells; transformed material becomes green)	phenotype of untransformed tissue (untransformed tissue)
CS(=O)(=O)c1cc(C(F)(F)F)ccc1C(=O)C(C#N)C(=O)C1CC1 (stereo not shown) [DKN, 2-cyano-3-cyclopropyl-1-(2-methylsulphonyl-4-trifluoromethylphenyl)-propane-1,3-dione]	prevents chlorophyll synthesis	does not kill untransformed cells	white, elongated shoots	
CS(=O)(=O)c1cc(C(F)(F)F)ccc1C(=O)c1cnoc1C1CC1 [IFT, (5-cyclopropyl-4-isoxazolyl)[2-(methylsulfonyl)-4-(trifluoromethyl)phenyl]methanone]				white, elongated shoots
